Assay results published in patent publication US20110269790A1, “NOVEL THIENOPYRIDINES AS PHARMACOLOGICALLY ACTIVE AGENTS” (priority 2009, published 2011).
In brackets after ≈: the same amount, converted by molar mass. Several values for one entry are separate records, joined by “and”; a condition that tells them apart may be missing. Identical values can stand only once. Entries after “also recorded” stand apart in the source; their conditions may differ. Like-named read-outs stand apart in the source and are kept apart here.

How the values were obtained:
[1] = tested on: Wistar rats; assay: Carrageenan induced paw edema model; format: in vivo, rat; conditions: for change in vivo at 100 mg/kg / inhibition in vivo at 100 mg/kg: Rattus norvegicus; for change in vivo at 100 mg/kg: read-out: % Increase in Paw Volume; for inhibition in vivo at 100 mg/kg: read-out: % Inhibition (paw volume); for % Inhibition / Percentage Swelling (50 mg/kg) / Percentage Swelling (100 mg/kg) / Percentage Swelling (200 mg/kg): dose response study, n=6
Procedure: Male Albino Wistar rats of 150-180 grams were used for the experiments.
Anti-inflammatory activity of test compounds was evaluated in Wistar rats employing the method of Winter et al (1963) and Diwan et al (1989). Male Wistar rats were used for the study. […] The different test compounds were administered to the animals in the test group at the dose of 100 mg/kg, by oral route. Animals in the standard group received Indomethacin at the dose of 10 mg/kg, by oral route. All test and standard compounds were administered as 1% gum acacia suspension. Rats in the control group received the vehicle solution without drugs. One hour after test drugs administration, rats in all the groups were challenged with 0.1 ml of 1% Carrageenan in the sub plantar region of right hind paw. A zero hour paw volume was measured for all the rats using digital plethysmometer (Ugo Basile, Italy) before the administration of carrageenan for all groups. Paw volumes were again measured 3 hrs after the challenge of Carrageenan. The percent inhibition of paw volume for each rat in treated groups was calculated by comparing with mean paw volume of control group and expressed as mean (±SE) percent inhibition of paw volume for each test. In a preliminary study the compounds that have shown good activity were evaluated for dose response study by using above procedure.

[2] = tested on: A431 (Skin cancer) cell lines; assay: MTT assay, A431; format: cell-based; conditions: for IC50: Homo sapiens, read-out: A431 cell lines IC50
Procedure: (§1) A431 (Skin cancer), Colo-205 (Colon cancer), A549 (Lung cancer) cell lines were obtained from National Center for Cell science (NCCS), Pune, India. DMEM (Dulbeccos Modified Eagles Medium), MTT [3-(4,5-dimethylthiazol-2-yl)-2,5-diphenyl tetrazolium bromide], Trypsin, EDTA were purchased from Sigma Chemicals Co (St. Louis, Mo.), Fetal bovine serum were purchased from Arrow labs, 96 well flat bottom tissue culture plates were purchased from Tarson.
(§2) A431, Colo-205, A549 cell lines were grown as adherent cells in DMEM media supplemented with 10% fetal bovine serum, 100 μg/ml penicillin, 200 μg/ml streptomycin, 2 mM L-glutamine, and culture was maintained in a humidified atmosphere with 5% CO2. Stock solution of 10 mg/ml was prepared for test molecules in DMSO. From the stock, various dilutions were made with sterile water to get required concentration. A431, Colo-205, A549 cell lines were seeded at a density of 1×10^4 cells (cell number was determined by Trypan blue exclusion dye method) per each well in 100 μl of DMEM supplemented with 10% FBS. 12 hrs after seeding, above media was replaced with fresh DMEM supplemented with 10% FBS. Then, 10 μl sample from above stock solutions were added to each well in triplicates which gives final concentration of 100, 50, 25, 10 μg/well. The above cells were incubated for 48 hrs at 37° C. with 5% CO2. After 48 hrs incubation the above media was replaced with 100 μl of fresh DMEM with out FBS and to this 10 μl of MTT (5 mg dissolved in 1 ml of PBS) was added and incubated for 3 hrs at 37° C. with 5% CO2. After 3 hrs of incubation, the above media was removed with multi channel pipette, then 200 μl of DMSO was added to each well and incubated at 37° C. for 15 min. Finally, the plate was read at 570 nm using spectrophotometer (Spectra Max, Molecular devices).

[3] = tested on: Colo-205 (Colon cancer); assay: MTT assay, Colo-205; format: cell-based; conditions: for IC50: Homo sapiens, read-out: Colo-205 IC50
Procedure: as §1, §2

[4] = tested on: A549 (Lung cancer); assay: MTT assay, A549; format: cell-based; conditions: for IC50: Homo sapiens, read-out: A549 IC50
Procedure: as §1, §2

[5] = molecular target: T1, porcine pancreatic α-amylase (Sus scrofa, UniProt P00690); assay: α-Amylase inhibition assay; format: biochemical; conditions: for Maltose released: a/b marks the respective control (Control-1 2.147, Control-2 3.429); for inhibition at 10000 µg/mL (stock): 0.05 h
T1 construct: α-amylase [EC 3.2.1.1) Type VI B: from porcine pancreas]; purchased Sigma Chemical Co., St Louis, Mo., USA; host or cells: porcine pancreas (natural source)
T1 sequence (P00690 16-511): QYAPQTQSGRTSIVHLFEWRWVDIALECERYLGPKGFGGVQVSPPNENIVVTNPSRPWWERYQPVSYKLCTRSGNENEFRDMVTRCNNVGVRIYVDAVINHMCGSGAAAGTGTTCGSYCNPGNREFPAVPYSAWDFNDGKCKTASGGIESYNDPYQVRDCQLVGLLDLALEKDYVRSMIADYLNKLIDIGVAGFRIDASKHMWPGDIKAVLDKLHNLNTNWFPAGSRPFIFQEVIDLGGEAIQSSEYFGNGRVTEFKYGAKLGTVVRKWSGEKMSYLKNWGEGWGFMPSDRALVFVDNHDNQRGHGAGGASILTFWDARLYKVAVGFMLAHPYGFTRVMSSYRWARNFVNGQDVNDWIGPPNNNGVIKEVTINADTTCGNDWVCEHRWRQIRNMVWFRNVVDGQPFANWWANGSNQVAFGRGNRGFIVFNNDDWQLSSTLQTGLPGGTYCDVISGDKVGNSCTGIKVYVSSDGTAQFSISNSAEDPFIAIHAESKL
Excerpt: Chemicals: α-Glucosidase [(EC 3.2.1.20) Type I: from bakers yeast], rat intestinal acetone powder (as a source of crude intestinal α-glucosidase), α-amylase [EC 3.2.1.1) Type VI B: from porcine pancreas], p-nitrophenyl α-D-glucopyranoside, 3,5-dinitro salicylic acid, soluble potato starch and 1-deoxyrojirimycine, were purchased from Sigma Chemical Co., St Louis, Mo., USA. Other chemicals of analytical grade were procured from indigenous manufacturers.
a-Amylase Inhibition Assay: The assay method was adopted from Ali et al. (2006) and modified accordingly to suite microplate reading. In brief, 40 μL of test samples (10 mg/mL DMSO) were reconstituted in 160 μL of 20 mM phosphate buffer (pH 6.9) containing 6.7 mM sodium chloride in 2 mL Eppendorf tubes and incubated with 200 μL of porcine pancreatic α-amylase) (4 U/mL prepared in ice cold distilled water) for 5 min. The reaction was started by the addition of 400-μL soluble potato starch solution (0.5% w/v in 20 mM phosphate buffer, pH 6.9). Exactly 3 min after incubation, 400 μL DNS color reagent (1.0 g of 3,5-dinitrosalicylic acid, 30 g of sodium potassium tartrate and 20 mL of 2 N NaOH to a final volume of 100 mL in distilled water) was added. Closed tubes were placed in a water bath (85-90° C.) for 10 min to develop color and cooled thereafter. 50 μL of reaction mixtures was diluted with 175 μL of distilled water in a 96-well microplate. α-Amylase activity was determined by measuring the absorbance of the mixture at 540 nm spectrophotometrically as above. Individual blanks were prepared to correct for the background absorbance due to test samples. In this case DNS solution was added in tubes before addition of substrate. The percentage inhibition of enzyme activity was calculated as above. All the tests were run in duplicate in this assay.

[6] = test compounds 100 mg/kg oral, Indomethacin 10 mg/kg oral, 3 hrs after Carrageenan
[7] = 10 mg per ml, calculated from maltose released vs respective control

SMILES	change in vivo at 100 mg/kg [1, 6] [%]	inhibition in vivo at 100 mg/kg [1, 6] [%]	IC50 ([2]; A-431, MTT, 48 hrs) [mg/L]	IC50 ([3]; COLO 205, MTT, 48 hrs) [mg/L]	IC50 ([4]; A549, MTT, 48 hrs) [mg/L]	Alpha amylase inhibitory activity (in words) ([5]; 10 mg per ml)	Maltose released ([5]; 10 mg per ml) [mg/mL]	inhibition at 10000 µg/mL (stock) [5, 7] [%]	further results
Cc1sc2nc3c(c(N)c2c1C)CCCC3 [BN-2, 2,3-dimethyl-5,6,7,8-tetrahydrothieno[2,3-b]quinolin-4-amine]	83.1 ± 2.66	20.6 ± 2.05	31.6 (≈ 136 µM)	117 (≈ 504 µM)	50.1 (≈ 216 µM)	strong inhibitory activity; also recorded: mild inhibition	2.095	39.7	
Nc1c2c(nc3sc4c(c13)CCC4)CCCC2 [BN-14, 2,3,6,7,8,9-Hexahydro-1H-cyclopenta[4,5]thieno[2,3-b]quinolin-10-amine]		33.5 ± 8.35	99.3 (≈ 406 µM)	223 (≈ 913 µM)	79.4 (≈ 325 µM)		2.210	-3.06	% Inhibition ([1]; 50 mg/kg oral): 19.80 ± 2.24%; Percentage Swelling (50 mg/kg) ([1]; 50 mg/kg oral): 72.34 ± 1.73 %; % Inhibition ([1]; 100 mg/kg oral): 33.47 ± 6.70%; Percentage Swelling (100 mg/kg) ([1]; 100 mg/kg oral): 71.30 ± 3.72 %; % Inhibition ([1]; 200 mg/kg oral): 56.45% and 56.45 ± 3.12%; Percentage Swelling (200 mg/kg) ([1]; 200 mg/kg oral): 41.78 ± 3.31 %
Nc1c2c(nc3sc4c(c13)CCC4)CCCCCC2 [BN-17, 2,3,6,7,8,9,10,11-Octahydro-1H-cycloocta [b]cyclopenta[4,5]thieno[3,2-e]pyridin-12-amine]						strong inhibitory activity	1.028		% Increase in Paw Volume [1, 6]: 76.85 ± 6.45%; % Inhibition (paw volume) [1, 6]: 6.87 ± 4.76%; A431 cell lines IC50 ([2]; MTT, 48 hrs): 32.35 mg/L; Colo-205 IC50 ([3]; MTT, 48 hrs): 61.65 mg/L; A549 IC50 ([4]; MTT, 48 hrs): 40.7 mg/L; % Inhibition [5, 7]: 53.92%
Nc1c2c(nc3sc4c(c13)CCC4)CCC2 [BN-13, 1,2,3,6,7,8-hexahydrocyclopenta [b]cyclopenta[4,5] thieno[3,2-e]pyridin-9-amine]						strong inhibitory activity	1.278		change in vivo at 100 mg/kg ([1]; po, 3 h): 91.7 ± 25.7%; inhibition in vivo at 100 mg/kg ([1]; po, 3 h): 12.3 ± 1.95%; IC50 ([2]; A-431, 48 h): 50.1 mg/L (≈ 218 µM); IC50 ([3]; COLO 205, 48 h): 144 mg/L (≈ 625 µM); IC50 ([4]; A549, 48 h): 83.2 mg/L (≈ 361 µM)
Cc1sc2nc3c(c(N)c2c1C)CCCCC3 [BN-4, 2,3-dimethyl-6,7,8,9-tetrahydro-5H-cyclohepta[b]thieno[3,2-e]pyridin-4-amine]	68.1 ± 3.41	41.8 ± 3.77	47.8 (≈ 194 µM)		36.3 (≈ 147 µM)		3.496	-2.01	% Inhibition ([1]; 50 mg/kg oral): 23.93 ± 2.96%; Percentage Swelling (50 mg/kg) ([1]; 50 mg/kg oral): 73.27 ± 4.47 %; % Inhibition ([1]; 100 mg/kg oral): 35.68 ± 3.77%; Percentage Swelling (100 mg/kg) ([1]; 100 mg/kg oral): 64.42 ± 3.97 %; % Inhibition ([1]; 200 mg/kg oral): 53.2% and 53.2 ± 3.03%; Percentage Swelling (200 mg/kg) ([1]; 200 mg/kg oral): 44.23 ± 3.34 %; Colo-205 IC50 ([3]; MTT, 48 hrs): No activity
CC1CCc2c(nc3sc4c(c3c2N)CCCC4)C1 (stereo not shown) [BN-7, 8-Methyl-1,2,3,4,7,8,9,10-octahydrobenzo[4,5]thieno[2,3-b]quinolin-11-amine]	113 ± 22.3	0.7 ± 0.7	36.3 (≈ 133 µM)	70.7 (≈ 260 µM)	49 (≈ 180 µM)		2.163	-0.765	
Nc1c2c(nc3sc4c(c13)CCCC4)CCCC2 [BN-6, 1,2,3,4,7,8,9,10-Octahydrobenzo[4,5]thieno[2,3-b]quinolin-11-amine]	109 ± 2.73	3.14 ± 1.96	36.3 (≈ 140 µM)	162 (≈ 627 µM)	33.8 (≈ 131 µM)	mild inhibition	2.548	26.2	
Nc1c2c(nc3sc4c(c13)CCCCC4)CCC2 [BN-18, 1,2,3,6,7,8,9,10-Octahydrocyclohepta[4,5] thieno[2,3-b]cyclopenta [e]pyridin-11-amine]	62.8 ± 2	17.4 ± 0.27	53.7 (≈ 208 µM)	47.8 (≈ 185 µM)	39.8 (≈ 154 µM)		3.972	-16.2	Maltose release ([5]; end of the reaction, vs control maltose release): more than control
COc1ccc2c(c1)c(CC(=O)O)c(C)n2C(=O)c1ccc(Cl)cc1 [Indomethacin, reference compound]	41.7 ± 9.97	50.1 ± 12.1							
